Laboratory results published in patent US11542508B2, “Isolated polynucleotides and polypeptides and methods of using same for expressing an expression product of interest” (priority 2016, dated 2023).

Legend:
AimR [1] = target: T1, AimR (Bacillus phage phi3T, UniProt P0DOE3); experiment: ChIP-seq of His-tagged AimR on phage DNA; format: cell-based; settings: 15 minutes after phage infection, with or without 1 μM peptide
Procedure: For the ChIP-seq experiments, B. subtilis cell cultures were grown in 100 ml to O.D of 0.1 in LB at 37° C. Following, 50 ml of culture was centrifuged at 4000 rpm for 10 minutes at room temperature. The pellets were then suspended with 25 ml LB either containing or lacking the peptide (SAIRGA, SEQ ID NO: 269) at a final concentration of 1 μM. The cultures were placed for an additional incubation hour at room temperature with shaking. The cultures were then infected with phage (MOI=0.5) having a final plaque forming units (PFU) of 5×10^7 PFU/ml phages. 15 minutes post phage infection the cultures were centrifuged at 3000 g for 5 minutes at 4° C. The supernatant was discarded and the pellets were resuspended with 1 ml of ice-cold 1×PBS (10 mM Phosphate, 137 mM NaCl, 2.7 mM KCl, pH of 7.4).
For the formaldehyde fixation of protein to DNA, the 1 ml PBS resuspended pellets were mixed with 62.5 μl formaldehyde (Thermoscientific 16% formaldehyde solution (w/v) methanol-free ampule) yielding a final formaldehyde concentration of 1% (w/v) within the solution. The formaldehyde-containing cell suspension was incubated at room temperature for 10 minutes with mild agitation. Following, 75 μl 2M Glycine (f.c. 150 mM) was added to quench residual formaldehyde. Glycine-containing samples were kept on ice for an additional 10 minutes followed by centrifugation at 5500 g for 1 minute at 4° C. […]

[2] = system: Bacillus subtilis BEST7003 containing Construct #2; experiment: GFP reporter expression, Construct #2; format: cell-based; settings: Construct #2, peptide 62.5 nM-1000 nM in LB
Procedure: Starter growths of wild type (WT) Bacillus subtilis BEST7003 strain and of Bacillus subtilis BEST7003 strains containing Construct #1 or Construct #2 were cultured in 3 ml Luria-Bertani (LB) broth until the growth curve indicated stationary phase. Following, the bacterial cells were diluted in a ratio of 1/100 in LB broth or LB broth supplemented with a SAIRGA (SEQ ID NO: 269) peptide at a concentration range of 62.5 nM-1000 nM. Optical density (O.D. at 600 nm) and GFP fluorescence levels (488 nm excitation/518 nm emission) were measured over time in a 96 wells plate using a TECAN Infinite 200 plate reader.

AimR [3] = target: T1, AimR; experiment: Analytical gel filtration of purified AimR (oligomeric state); design: made in house; host or cells: E. coli BL21(DE3), pET28a; settings: AimR:SAIRGA 1:2, AimR:GMPRGA 1:1 molar ratio
Procedure: Following, AimR was expressed in E. coli BL21(DE3) cells with a C-terminal 6× His-tag. Expression was performed at 15° C. for about ˜18 hours using 200 μM IPTG (Isopropyl β-D-1-thiogalactopyranoside) as an inducer. The cells pellet was resuspended in lysis buffer [50 mM Tris pH 8, 0.3M NaCl, 20 mM Imidazole, 2 mM DTT, 0.2 mg/ml Lysozyme, 1 μg/ml DNAse, protease inhibitor cocktail (Calbiochem)], disrupted by a cell disrupter at 4° C. and clarified at 15,000 g for 30 minutes. The clarified lysate was loaded onto a HisTrap_FF_5 ml column (GE Healthcare) and washed with buffer containing 50 mM Tris pH 8, 0.3 M NaCl, 20 mM imidazole and 2 mM DTT. AimR was eluted from the column in one step with the same buffer containing 0.5 M imidazole. Fractions containing AimR were pooled and injected to a size exclusion column (HiLoad_16/60_Superdex_200_prepgrade,GE_Healthcare) equilibrated with 20 mM Tris pH 8, 0.3 M NaCl, 2 mM TCEP. Fractions containing pure AimR were pooled and flash frozen in aliquots using liquid nitrogen.
Pure AimR was injected to an analytical gel filtration column (Superdex_200_Increase_10/30 GL, GE Healthcare) equilibrated with buffer containing 20 mM Tris pH 8, 0.3 M NaCl, 2 mM TCEP. […]

T1 sequence (P0DOE3 whole entry): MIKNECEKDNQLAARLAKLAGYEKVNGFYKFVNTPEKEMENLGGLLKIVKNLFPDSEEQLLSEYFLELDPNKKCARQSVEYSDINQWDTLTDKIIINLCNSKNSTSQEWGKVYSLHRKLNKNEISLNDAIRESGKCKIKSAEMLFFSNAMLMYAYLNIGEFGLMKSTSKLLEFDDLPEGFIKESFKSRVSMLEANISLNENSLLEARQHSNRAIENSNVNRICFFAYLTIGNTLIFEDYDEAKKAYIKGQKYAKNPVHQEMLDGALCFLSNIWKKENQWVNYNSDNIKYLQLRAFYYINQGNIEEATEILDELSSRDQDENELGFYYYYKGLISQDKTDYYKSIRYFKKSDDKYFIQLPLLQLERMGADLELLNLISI

CC[C@H](C)[C@H](NC(=O)[C@H](C)NC(=O)[C@@H](N)CO)C(=O)N[C@@H](CCCNC(=N)N)C(=O)NCC(=O)N[C@@H](C)C(=O)O [SAIRGA, Ser-Ala-Ile-Arg-Gly-Ala]
binding of AimR to its site in the phage genome (ChIP-seq) (AimR [1]): this binding only occurred when the arbitrium peptide was absent | GFP expression in presence of peptide [2]: differential expression of GFP dependent on the concentration of the peptide | AimR oligomeric state (migration in gel filtration column) (AimR [3]): strictly migrated as a monomer
